# Measurements as given in patent US9119879B2, “Oral care compositions comprising a quinone and a further antimicrobial agent” (Colgate-Palmolive Company, priority 2010, dated 2015).
# What was measured:
# A. viscosus biofilm = assay: Single species A. viscosus biofilm assay (Biofilm Eradication Concentration, BEC50); assay type: cell-based; conditions: for BEC50 of Active + 50 ppm TBHQ: active combined with 50 ppm TBHQ; for BEC50 of Active Alone: lowest concentration with greater than 50% reduction in biofilm biomass relative to control, TBHQ tested at 50 ppm
# Experimental: TBHQ and a series of actives were tested in single species of A. viscosus biofilm assay.
# common pathogens = assay: Antimicrobial activity relative to known antimicrobial agents; assay type: cell-based
# P. gingivalis = assay: Minimum inhibitory concentration (MIC) of TBHQ; assay type: cell-based
# IL-6 = assay: Anti-inflammatory efficacy in cells triggered by HKPG: IL-6 level; assay type: cell-based, human
# Experimental: (§1) The anti-inflammatory efficacy of TBHQ in neat solution against several inflammation cytokines was evaluated. Human fibroblast (HEPM) cells or human macrophage (U937) cells were used in these tests. Inflammation was triggered by Heat Killed P. gingivalis (HKPG). TBHQ at various doses was co-incubated with cells treated with HKPG, and the levels of inflammatory markers were observed.
# PGE2 = assay: Anti-inflammatory efficacy in cells triggered by Heat Killed P. gingivalis (HKPG): PGE2 level; assay type: cell-based, human
# Experimental: as §1
# TNF-α = assay: Anti-inflammatory efficacy in cells triggered by HKPG: TNF-α level; assay type: cell-based, human
# Experimental: as §1
# A. viscosus = assay: Minimum inhibitory concentration (MIC) of TBHQ; assay type: cell-based
# IL-1b = assay: Anti-inflammatory efficacy in cells triggered by HKPG: IL-1b level; assay type: cell-based, human
# Experimental: as §1
# F. nucleatum = assay: Minimum inhibitory concentration (MIC) of TBHQ; assay type: cell-based
# [1] = TBHQ 10 ppm, HKPG-treated cells
# [2] = TBHQ 100 ppm, HKPG-treated cells
smiles,measurement,setting,value
O=C([O-])CC(O)(CC(=O)[O-])C(=O)[O-].O=C([O-])CC(O)(CC(=O)[O-])C(=O)[O-].[Zn+2].[Zn+2].[Zn+2] [Zinc Citrate],BEC50 of Active + 50 ppm TBHQ,A. viscosus biofilm,19.5 ppm
same,BEC50 of Active Alone,A. viscosus biofilm,78.1 ppm
[Cl][Sn][Cl] [Stannous chloride],BEC50 of Active + 50 ppm TBHQ,A. viscosus biofilm,39 ppm
same,BEC50 of Active Alone,A. viscosus biofilm,156.3 ppm
"Oc1cc(Cl)ccc1Oc1ccc(Cl)cc1Cl [Triclosan, reference compound]",BEC50 of Active + 50 ppm TBHQ,A. viscosus biofilm,<0.03 ppm
same,BEC50 of Active Alone,A. viscosus biofilm,0.49 ppm
COc1cc(CCC(=O)CC(=O)CCc2ccc(O)c(OC)c2)ccc1O [Tetra-hydrocurcumin],BEC50 of Active + 50 ppm TBHQ,A. viscosus biofilm,1.22 ppm
same,BEC50 of Active Alone,A. viscosus biofilm,>2500 ppm
"CC(C)(C)c1cc(O)ccc1O [TBHQ, 2-t-butyl-p-hydroquinone]","antimicrobial activity, times lower than known antimicrobial agent",common pathogens; relative to cetylpyridinium chloride (CPC),60 times
same,"antimicrobial activity, times lower than known antimicrobial agent",common pathogens; relative to triclosan,20 times
same,MIC,P. gingivalis,62.5 ppm
same,IL-6,"IL-6; TBHQ 1 ppm, HKPG-treated cells (HKPG alone 1753, untreated 42)",405 pg/mL
same,IL-6,IL-6; [1],100 pg/mL
same,IL-6,IL-6; [2],23 pg/mL
same,PGE2 level,"PGE2; TBHQ 0.9 ppm, HKPG-treated cells",1323 pg/mL
same,PGE2 level,"PGE2; TBHQ 1.8 ppm, HKPG-treated cells",1378 pg/mL
same,PGE2 level,"PGE2; TBHQ 3.9 ppm, HKPG-treated cells",1327 pg/mL
same,PGE2 level,"PGE2; TBHQ 7.8 ppm, HKPG-treated cells",1563 pg/mL
same,PGE2 level,"PGE2; TBHQ 15.6 ppm, HKPG-treated cells",1249 pg/mL
same,PGE2 level,"PGE2; TBHQ 31.2 ppm, HKPG-treated cells",1124 pg/mL
same,PGE2 level,"PGE2; TBHQ 62.5 ppm, co-incubated with HKPG-treated cells (HKPG alone 1743, untreated 1579)",764 pg/mL
same,TNF-α,"TNF-α; TBHQ 1 ppm, HKPG-treated cells (HKPG alone 194, untreated 15)",198 pg/mL
same,TNF-α,TNF-α; [1],68 pg/mL
same,TNF-α,TNF-α; [2],7 pg/mL
same,MIC,A. viscosus,62.5 ppm
same,IL-1b,"IL-1b; TBHQ 1 ppm, HKPG-treated cells (HKPG alone 85, untreated 63)",88 pg/mL
same,IL-1b,IL-1b; [1],55 pg/mL
same,IL-1b,IL-1b; [2],29 pg/mL
same,MIC,F. nucleatum,62.5 ppm
same,reduction in biofilm biomass,A. viscosus biofilm; TBHQ alone at 12.5 ppm,≤ 50%
same,reduction in biofilm biomass,A. viscosus biofilm; TBHQ alone at 50 ppm,≤ 50%
same,BEC50,"A. viscosus biofilm; Table 3, TBHQ at 12.5 ppm, alone or with zinc oxide slurry",Not measurable
same,BEC50 of Active Alone,A. viscosus biofilm,Not measurable
